Where two headings read alike, the source gives them in different places.
Tests used:
Assay in all cases: Test A pre-/postemergence plant response
Format in all cases: in vivo
[1] = system: barnyardgrass (Echinochloa crus-galli); settings: Echinochloa crus-galli, 240 h; for pest or weed control at 125 g/ha: 125 g ai/ha; for pest or weed control at 500 g/ha: 500 g ai/ha
Outline: (§1)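 Seeds planted in loam soil/sand blend; test chemicals in non-phytotoxic solvent mixture with surfactant applied as directed soil spray preemergence and, concurrently, postemergence to plants 2–10 cm tall at one- to two-leaf stage. Greenhouse ~10 days; visual injury vs untreated controls, 0 (no effect) to 100 (complete control).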

corn (Zea mays) = settings: Zea mays, 240 h; for Corn plant response rating (crop injury, 0 = no effect, 100 = complete kill) at 500 g/ha: 500 g ai/ha
Outline: as §1

[2] = system: giant foxtail (Setaria faberii); settings: Setaria faberi, 240 h; for pest or weed control at 125 g/ha: 125 g ai/ha; for pest or weed control at 500 g/ha: 500 g ai/ha
Outline: as §1

[3] = system: large crabgrass (Digitaria sanguinalis); settings: Digitaria sanguinalis, 240 h; for pest or weed control at 125 g/ha: 125 g ai/ha; for pest or weed control at 500 g/ha: 500 g ai/ha
Outline: as §1

[4] = system: morningglory (Ipomoea spp.); settings: Ipomoea, 240 h; for pest or weed control at 125 g/ha: 125 g ai/ha; for pest or weed control at 500 g/ha: 500 g ai/ha
Outline: as §1

[5] = system: pigweed (Amaranthus retroflexus); settings: Amaranthus retroflexus, 240 h, approx. ten days; for pest or weed control at 500 g/ha: 500 g ai/ha, read-out: Plant response rating, Pigweed
Outline: as §1

[6] = system: velvetleaf (Abutilon theophrasti); settings: Abutilon theophrasti, 240 h; for pest or weed control at 125 g/ha: 125 g ai/ha; for pest or weed control at 500 g/ha: 500 g ai/ha
Outline: as §1

[7] = system: wheat (Triticum aestivum); settings: Triticum aestivum, 240 h; for plant injury at 125 g/ha: 125 g ai/ha; for plant injury at 500 g/ha: 500 g ai/ha
Outline: as §1

Structure (SMILES): CCn1ncc(C(=O)c2cnc(-c3ccccc3)n(Cc3ccccc3)c2=O)c1OS(=O)(=O)c1ccc(C)cc1 [Compound 21, 5-[[1-ethyl-5-[[(4-methylphenyl)sulfonyl]oxy]-1H-pyrazol-4-yl]carbonyl]-2-phenyl-3-(phenylmethyl)-4(3H)-pyrimidinone]
- pest or weed control at 125 g/ha ([1]; post-emergence, Postemergence, visual injury, 0 to 100 scale (0 no effect, 100 complete control), approx. ten days, read-out: Barnyardgrass plant response rating): 0%
- pest or weed control at 500 g/ha ([1]; post-emergence, Postemergence, 0 to 100 scale, 0 = no effect, 100 = complete control, approx. ten days, read-out: Plant response rating, Barnyardgrass): 10%
- pest or weed control at 125 g/ha ([1]; pre-emergence, Preemergence, 0 to 100 scale, 0 = no effect, 100 = complete control, read-out: Plant response rating, Barnyardgrass): 0%
- pest or weed control at 500 g/ha ([1]; pre-emergence, Preemergence, visual injury, 0 to 100 scale (0 no effect, 100 complete control), approx. ten days, read-out: Plant response rating, Barnyardgrass): 0%
- plant injury at 125 g/ha (corn (Zea mays); post-emergence, Postemergence, 125 g ai/ha, visual injury, 0 to 100 scale (0 no effect, 100 complete control), approx. ten days, read-out: Corn plant response rating): 0%
- Corn plant response rating (crop injury, 0 = no effect, 100 = complete kill) at 500 g/ha (corn (Zea mays); post-emergence, Postemergence, 0 to 100 scale, 0 = no effect, 100 = complete control, approx. ten days): 0%
- Corn plant response rating (crop injury, 0 = no effect, 100 = complete kill) at 125 g/ha (corn (Zea mays); pre-emergence, Preemergence, 125 g ai/ha, 0 to 100 scale, 0 = no effect, 100 = complete control): 0%
- Corn plant response rating (crop injury, 0 = no effect, 100 = complete kill) at 500 g/ha (corn (Zea mays); pre-emergence, Preemergence, visual injury, 0 to 100 scale (0 no effect, 100 complete control), approx. ten days): 0%
- pest or weed control at 125 g/ha ([2]; post-emergence, Postemergence, visual injury, 0 to 100 scale (0 no effect, 100 complete control), approx. ten days, read-out: Foxtail, Giant plant response rating): 0%
- pest or weed control at 500 g/ha ([2]; post-emergence, Postemergence, 0 to 100 scale, 0 = no effect, 100 = complete control, approx. ten days, read-out: Plant response rating, Foxtail, Giant): 0%
- pest or weed control at 125 g/ha ([2]; pre-emergence, Preemergence, 0 to 100 scale, 0 = no effect, 100 = complete control, read-out: Plant response rating, Foxtail, Giant): 0%
- pest or weed control at 500 g/ha ([2]; pre-emergence, Preemergence, visual injury, 0 to 100 scale (0 no effect, 100 complete control), approx. ten days, read-out: Plant response rating, Foxtail, Giant): 10%
- pest or weed control at 125 g/ha ([3]; post-emergence, Postemergence, visual injury, 0 to 100 scale (0 no effect, 100 complete control), approx. ten days, read-out: Crabgrass, Large plant response rating): 0%
- pest or weed control at 500 g/ha ([3]; post-emergence, Postemergence, 0 to 100 scale, 0 = no effect, 100 = complete control, approx. ten days, read-out: Plant response rating, Crabgrass, Large): 10%
- pest or weed control at 125 g/ha ([3]; pre-emergence, Preemergence, 0 to 100 scale, 0 = no effect, 100 = complete control, read-out: Plant response rating, Crabgrass, Large): 0%
- pest or weed control at 500 g/ha ([3]; pre-emergence, Preemergence, visual injury, 0 to 100 scale (0 no effect, 100 complete control), approx. ten days, read-out: Plant response rating, Crabgrass, Large): 20%
- pest or weed control at 125 g/ha ([4]; post-emergence, Postemergence, visual injury, 0 to 100 scale (0 no effect, 100 complete control), approx. ten days, read-out: Morningglory plant response rating): 0%
- pest or weed control at 500 g/ha ([4]; post-emergence, Postemergence, 0 to 100 scale, 0 = no effect, 100 = complete control, approx. ten days, read-out: Plant response rating, Morningglory): 0%
- pest or weed control at 125 g/ha ([4]; pre-emergence, Preemergence, 0 to 100 scale, 0 = no effect, 100 = complete control, read-out: Plant response rating, Morningglory): 0%
- pest or weed control at 500 g/ha ([4]; pre-emergence, Preemergence, visual injury, 0 to 100 scale (0 no effect, 100 complete control), approx. ten days, read-out: Plant response rating, Morningglory): 0%
- pest or weed control at 125 g/ha ([5]; post-emergence, Postemergence, 125 g ai/ha, visual injury, 0 to 100 scale (0 no effect, 100 complete control), read-out: Pigweed plant response rating): 0%
- pest or weed control at 500 g/ha ([5]; post-emergence, Postemergence, 0 to 100 scale, 0 = no effect, 100 = complete control): 50%
- pest or weed control at 500 g/ha ([5]; pre-emergence, Preemergence, visual injury, 0 to 100 scale (0 no effect, 100 complete control)): 70%
- pest or weed control at 125 g/ha ([6]; post-emergence, Postemergence, visual injury, 0 to 100 scale (0 no effect, 100 complete control), approx. ten days, read-out: Velvetleaf plant response rating): 30%
- pest or weed control at 500 g/ha ([6]; post-emergence, Postemergence, 0 to 100 scale, 0 = no effect, 100 = complete control, approx. ten days, read-out: Plant response rating, Velvetleaf): 70%
- pest or weed control at 125 g/ha ([6]; pre-emergence, Preemergence, 0 to 100 scale, 0 = no effect, 100 = complete control, read-out: Plant response rating, Velvetleaf): 0%
- pest or weed control at 500 g/ha ([6]; pre-emergence, Preemergence, visual injury, 0 to 100 scale (0 no effect, 100 complete control), approx. ten days, read-out: Plant response rating, Velvetleaf): 0%
- plant injury at 125 g/ha ([7]; post-emergence, Postemergence, visual injury, 0 to 100 scale (0 no effect, 100 complete control), approx. ten days, read-out: Wheat plant response rating): 0%
- plant injury at 500 g/ha ([7]; post-emergence, Postemergence, 0 to 100 scale, 0 = no effect, 100 = complete control, approx. ten days, read-out: Plant response rating, Wheat): 0%
- plant injury at 125 g/ha ([7]; pre-emergence, Preemergence, 0 to 100 scale, 0 = no effect, 100 = complete control, read-out: Plant response rating, Wheat): 0%
- plant injury at 500 g/ha ([7]; pre-emergence, Preemergence, visual injury, 0 to 100 scale (0 no effect, 100 complete control), approx. ten days, read-out: Plant response rating, Wheat): 0%

Reference: patent US8952024B2, “Herbicidal pyrimidone derivatives” (E I du Pont de Nemours and Company, priority 2009, dated 2015)
